This is an account of results in ChEMBL document CHEMBL1141785, “Cimipronidine, a cyclic guanidine alkaloid from Cimicifuga racemosa” (J Nat Prod, 2005).

Calls of active or inactive are those of the source. The rule behind the calls is not given here.

This assay deals with 5-hydroxytryptamine receptor 7 (Homo sapiens) (UniProt P34969). In words: Binding affinity to 5HT7 receptor.
Chain of 5-hydroxytryptamine receptor 7 (Homo sapiens) (P34969 whole entry): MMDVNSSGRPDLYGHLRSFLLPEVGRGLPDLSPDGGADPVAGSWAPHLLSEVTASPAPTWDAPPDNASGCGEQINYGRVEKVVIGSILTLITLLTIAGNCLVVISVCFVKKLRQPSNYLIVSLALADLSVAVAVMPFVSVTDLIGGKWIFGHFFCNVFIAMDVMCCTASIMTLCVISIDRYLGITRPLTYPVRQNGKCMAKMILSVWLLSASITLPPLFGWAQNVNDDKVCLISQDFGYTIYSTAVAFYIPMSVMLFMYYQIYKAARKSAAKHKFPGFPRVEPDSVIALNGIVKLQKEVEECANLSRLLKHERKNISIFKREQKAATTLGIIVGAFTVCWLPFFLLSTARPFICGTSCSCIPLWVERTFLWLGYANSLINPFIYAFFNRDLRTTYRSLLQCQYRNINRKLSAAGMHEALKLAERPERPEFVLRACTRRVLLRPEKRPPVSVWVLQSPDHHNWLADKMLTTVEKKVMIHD

With `N=C(N)N1CCCC1CC(=O)O` (configuration not stated), the outcome was Active.
For `O=C(/C=C/c1ccc(O)c(O)c1)O[C@H](C(=O)O)[C@](O)(Cc1ccc(O)c(O)c1)C(=O)O`, the outcome was Active.
